Measured values from PubChem BioAssay (NCI).
“And” between values parts separate entries of the source, which are not always exact repeats. Equal entries are not always repeated.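 Results reflect a 48-hour exposure of cells in 96-well plates to compound at five concentrations. GI50: concentration for 50% inhibition of growth. TGI: concentration producing complete growth inhibition.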

What was measured:
Test in all cases: growth of human tumour cells (NCI), 48 h
UACC-62 melanoma = system: UACC-62 melanoma
MALME-3M melanoma = system: MALME-3M melanoma
SNB-19 CNS = system: SNB-19 CNS
A498 renal = system: A498 renal
SK-MEL-28 melanoma = system: SK-MEL-28 melanoma
SK-MEL-5 melanoma = system: SK-MEL-5 melanoma
EKVX NSCLC = system: EKVX NSCLC
OVCAR-8 ovarian = system: OVCAR-8 ovarian
PC-3 prostate = system: PC-3 prostate
COLO 205 colon = system: COLO 205 colon

## FC(F)(F)c1[nH]ncc1-c1nc2c(N3CCCCC3)cc3[nH]ncc3c2c2c1CCCC2
UACC-62 melanoma
  GI50: 0.391 µM
  TGI: 1.41 µM
MALME-3M melanoma
  GI50: 0.843 µM
  TGI: 2.14 µM
SNB-19 CNS
  GI50: 1.25 µM
  TGI: > 16.5 µM
A498 renal
  GI50: 0.0566 µM
  TGI: 0.196 µM
SK-MEL-28 melanoma
  GI50: 0.617 µM
  TGI: 1.78 µM
SK-MEL-5 melanoma
  GI50: 0.637 µM
  TGI: 1.5 µM
EKVX NSCLC
  GI50: 0.868 µM
  TGI: 2.48 µM
OVCAR-8 ovarian
  GI50: 0.825 µM
  TGI: > 50 µM
PC-3 prostate
  GI50: 0.91 µM
  TGI: > 13.8 µM

## Cc1ccc(Nc2[nH]c(C(=O)c3ccc(Cl)cc3)c(N)c2C(=S)Nc2ccccc2)nc1
UACC-62 melanoma
  GI50: 15.3 µM
  TGI: 41 µM
MALME-3M melanoma
  GI50: 13.7 µM
  TGI: 42 µM
SNB-19 CNS
  GI50: 39.4 µM
  TGI: > 100 µM
COLO 205 colon
  GI50: 31.9 µM
  TGI: > 100 µM
A498 renal
  GI50: 23.4 µM
  TGI: 61.8 µM
SK-MEL-28 melanoma
  GI50: 55.2 µM
  TGI: > 100 µM
SK-MEL-5 melanoma
  GI50: 14 µM
  TGI: 33.7 µM
EKVX NSCLC
  GI50: 35.5 µM
  TGI: > 100 µM
OVCAR-8 ovarian
  GI50: 22 µM
  TGI: 97.3 µM
PC-3 prostate
  GI50: 26.5 µM
  TGI: > 100 µM

## S=c1nc[nH]c2nc[nH]c12
UACC-62 melanoma
  TGI: > 100 µM and 512 µM and > 750 µM
MALME-3M melanoma
  GI50: 5.28 µM
  TGI: > 100 µM and 298 µM and > 750 µM
SNB-19 CNS
  GI50: 65.9 µM and 213 µM
  TGI: > 750 µM
COLO 205 colon
  GI50: 18.8 µM
  TGI: > 100 µM and 546 µM and > 750 µM
A498 renal
  GI50: 104 µM
  TGI: 584 µM and 187 µM
SK-MEL-28 melanoma
  GI50: 79.2 µM
  TGI: > 750 µM
SK-MEL-5 melanoma
  GI50: 5.4 µM and 46.1 µM
  TGI: 62.2 µM and 285 µM and > 430 µM
EKVX NSCLC
  GI50: > 100 µM and 353 µM
  TGI: > 100 µM and 741 µM and > 750 µM
OVCAR-8 ovarian
  GI50: 3.74 µM and 35.5 µM
  TGI: > 100 µM and 739 µM and > 532 µM
PC-3 prostate
  GI50: 7.96 µM and 18.7 µM
  TGI: > 750 µM

## COc1nc2c(cc1S(=O)(=O)c1ccccc1)CCc1c-2cnn1Cc1ccccc1
UACC-62 melanoma
  GI50: 7.52 µM
  TGI: > 100 µM
MALME-3M melanoma
  GI50: 24.4 µM
  TGI: > 100 µM
SNB-19 CNS
  GI50: > 100 µM
  TGI: > 100 µM
COLO 205 colon
  GI50: 7.32 µM
  TGI: > 100 µM
A498 renal
  GI50: 2.7 µM
  TGI: > 100 µM
SK-MEL-28 melanoma
  GI50: > 100 µM
  TGI: > 100 µM
SK-MEL-5 melanoma
  GI50: 2.89 µM
  TGI: > 100 µM
EKVX NSCLC
  GI50: 14 µM
  TGI: > 100 µM
OVCAR-8 ovarian
  GI50: 34.5 µM
  TGI: > 100 µM
PC-3 prostate
  GI50: 4.23 µM
  TGI: > 100 µM

## COc1cc(/C=C2\CCCC3C2=Nc2ccccc2NC3c2cc(OC)c(OC)c(OC)c2)cc(OC)c1OC (configuration not stated)
UACC-62 melanoma
  GI50: 1.37 µM
  TGI: 3.52 µM
MALME-3M melanoma
  GI50: 1.56 µM
  TGI: 6.56 µM
SNB-19 CNS
  GI50: 8.37 µM
  TGI: > 100 µM
COLO 205 colon
  GI50: 2.59 µM
  TGI: 6.29 µM
A498 renal
  GI50: 1.49 µM
  TGI: 6.41 µM
SK-MEL-28 melanoma
  GI50: 2.02 µM
  TGI: 5.24 µM
SK-MEL-5 melanoma
  GI50: 1.95 µM
  TGI: 5.72 µM
EKVX NSCLC
  GI50: 7.45 µM
  TGI: > 100 µM
OVCAR-8 ovarian
  GI50: 0.4 µM
  TGI: 42.9 µM
PC-3 prostate
  GI50: 2.69 µM
  TGI: > 100 µM

## CC(C)(C)OC(=O)N1CC(Cn2cc(C(F)(F)F)c3c(Cl)ncnc32)C1
UACC-62 melanoma
  GI50: 1.85 µM
  TGI: 3.65 µM
MALME-3M melanoma
  GI50: 12.4 µM
  TGI: 26.6 µM
SNB-19 CNS
  GI50: 1.8 µM
  TGI: 3.33 µM
COLO 205 colon
  GI50: 12.6 µM
  TGI: 28.5 µM
A498 renal
  GI50: 4.81 µM
  TGI: 16.8 µM
SK-MEL-28 melanoma
  GI50: 1.91 µM
  TGI: 3.53 µM
SK-MEL-5 melanoma
  GI50: 1.79 µM
  TGI: 3.21 µM
EKVX NSCLC
  GI50: 2.63 µM
  TGI: 10.2 µM
OVCAR-8 ovarian
  GI50: 1.84 µM
  TGI: 3.58 µM
PC-3 prostate
  GI50: 1.76 µM
  TGI: 3.5 µM
